In patent US20030186890A1, “Amphipathic linear peptides and formulations containing said peptides” (SYNT:EM S.A., priority 2000, published 2003):
“And” between values parts separate entries of the source, which are not always exact repeats. Equal values may be shown once.

How the values were obtained:
[1] = mouse, in vivo
Excerpt: This is a rapid and sensitive method to evaluate the penetration of various compounds in the central nervous system. Young mice (25-30 g, Iffa-Credo; l'Arbresle, France) were anaesthetised. After exposure of the common carotid, the right external carotid artery was tied at the bifurcation with the internal carotid and the common carotid was tied between the heart and the catheter implantation site (polyethylene catheter, ID: 0.76). The catheter previously filled with a heparin solution (100 units/ml) was inserted into the common carotid. The mice were infused with the infusion buffer (128 mM NaCl, 24 mM NaHCO3, 4.2 mM KCl, 2.4 mM NaH2PO4, 1.5 mM CaCl2, 0.9 mM MgSO4 and 9 mM D-glucose). The buffer was filtered and then bubbled with a mixture containing 95% O2/5% CO2 to maintain the pH close to 7.4 and supply the brain with oxygen during the infusion.
In each product, the doxorubicin was radiolabelled with carbon 14 (specific activity: 9.4 μCi/mg, Amersham, France) . The products were infused at a concentration of 0.33 μCi/ml or 0.035 mg/mouse.
Just before the start of infusion, the heart was stopped by ventricular section to prevent infusate reflux during infusion. The right hemisphere was then infused at a rate of 10 ml/min for 60 seconds, after which the mouse was decapitated. […]

K562 cells = assay: Cell penetration of NBD-labelled peptides by flow cytometry (FACS); assay type: cell-based; conditions: for penetration (mean fluorescent intensity): NBD-labelled peptide 1 μM, 37° C.; for penetration relative to that of SynB1: at 60 min; for penetration compared with the reference peptide (in words): irrespective of the time interval
Experimental: Cell penetration of the peptides was studied by flow cytometry. The K562 cells were cultured in RPMI medium with 10% foetal calf serum. The cells were diluted to 0.3×10^6 cells per ml 24 hours before the experiment. The cell penetration was measured by flow cytometry using a FACScan (Becton Dickinson, USA). The peptides labelled with NBD (final concentration 1 μM) were incubated with the K562 cells (5×10^5 cells per ml) in Optimem medium at 37° C. for variable periods (the final volume was 0.5 ml). After incubation, the cells were washed twice and then resuspended in 0.5 ml of cold PBS. The penetration was then analysed by FACS. The fluorophors were excited at 488 nm and the fluorescence measured at 525 nm. A histogram of the fluorescent intensity (for 1×10^4 cells) was obtained and the mean distribution considered to be representative of the quantity of peptide associated with the cells.

Doxo-(RGGRLSYSCitCitCitFSTSTGR) [Doxo-SynB1/3Cit]
increase of passage into the brain (influx constant Kin) versus doxorubicin alone [1]: 20 times

R G G R L A Y L R R R W A V L V G R (RGGRLAYLRRRWAVLVGR) [SM3979]
penetration (mean fluorescent intensity) (K562 cells; Time 0 min): 4
penetration (mean fluorescent intensity) (K562 cells; Time 5 min): 75
penetration (mean fluorescent intensity) (K562 cells; Time 10 min): 95
penetration (mean fluorescent intensity) (K562 cells; Time 30 min): 100
penetration (mean fluorescent intensity) (K562 cells; Time 60 min): 114
penetration relative to that of SynB1 (K562 cells): 9 times
penetration compared with the reference peptide (in words) (K562 cells): penetrate much more effectively

R G G R L S Y S R R R F S T S T G R (RGGRLSYSRRRFSTSTGR) [SynB1, reference compound]
penetration (mean fluorescent intensity) (K562 cells; Time 0 min): 4
penetration (mean fluorescent intensity) (K562 cells; Time 5 min): 7
penetration (mean fluorescent intensity) (K562 cells; Time 10 min): 7
penetration (mean fluorescent intensity) (K562 cells; Time 30 min): 8
penetration (mean fluorescent intensity) (K562 cells; Time 60 min): 12

R G G R L V Y V R R R W V V V V G R (RGGRLVYVRRRWVVVVGR) [SM3980]
penetration (mean fluorescent intensity) (K562 cells; Time 0 min): 4
penetration (mean fluorescent intensity) (K562 cells; Time 5 min): 34
penetration (mean fluorescent intensity) (K562 cells; Time 10 min): 42
penetration (mean fluorescent intensity) (K562 cells; Time 30 min): 54
penetration (mean fluorescent intensity) (K562 cells; Time 60 min): 62
penetration relative to that of SynB1 (K562 cells): 5 times
penetration compared with the reference peptide (in words) (K562 cells): penetrate much more effectively

R L R W R L R L R F (RLRWRLRLRF) [SM4292]
penetration (mean fluorescent intensity) (K562 cells; Time 0 min): 4.5
penetration (mean fluorescent intensity) (K562 cells; Time 5 min): 140
penetration (mean fluorescent intensity) (K562 cells; Time 10 min): 140
penetration (mean fluorescent intensity) (K562 cells; Time 30 min): 141
penetration (mean fluorescent intensity) (K562 cells; Time 60 min): 146

R L R W R L R Y R F (RLRWRLRYRF) [SM4291]
penetration (mean fluorescent intensity) (K562 cells; Time 0 min): 4.5
penetration (mean fluorescent intensity) (K562 cells; Time 5 min): 91
penetration (mean fluorescent intensity) (K562 cells; Time 10 min): 99
penetration (mean fluorescent intensity) (K562 cells; Time 30 min): 107
penetration (mean fluorescent intensity) (K562 cells; Time 60 min): 118

R R L S Y S R R R F (RRLSYSRRRF) [SynB3, reference compound]
penetration (mean fluorescent intensity) (K562 cells; Time 0 min): 4 and 4.5
penetration (mean fluorescent intensity) (K562 cells; Time 5 min): 9.5 and 12
penetration (mean fluorescent intensity) (K562 cells; Time 10 min): 10 and 13
penetration (mean fluorescent intensity) (K562 cells; Time 30 min): 12 and 15
penetration (mean fluorescent intensity) (K562 cells; Time 60 min): 16 and 23

R R L W L L R R R F (RRLWLLRRRF) [SM4288]
penetration (mean fluorescent intensity) (K562 cells; Time 0 min): 4
penetration (mean fluorescent intensity) (K562 cells; Time 5 min): 33
penetration (mean fluorescent intensity) (K562 cells; Time 10 min): 38
penetration (mean fluorescent intensity) (K562 cells; Time 30 min): 53
penetration (mean fluorescent intensity) (K562 cells; Time 60 min): 61

R R L W R L L R R F (RRLWRLLRRF) [SM4290]
penetration (mean fluorescent intensity) (K562 cells; Time 0 min): 4
penetration (mean fluorescent intensity) (K562 cells; Time 5 min): 147
penetration (mean fluorescent intensity) (K562 cells; Time 10 min): 168
penetration (mean fluorescent intensity) (K562 cells; Time 30 min): 366
penetration (mean fluorescent intensity) (K562 cells; Time 60 min): 371

R R L W R L Y R R F (RRLWRLYRRF) [SM4289]
penetration (mean fluorescent intensity) (K562 cells; Time 0 min): 4
penetration (mean fluorescent intensity) (K562 cells; Time 5 min): 63
penetration (mean fluorescent intensity) (K562 cells; Time 10 min): 80
penetration (mean fluorescent intensity) (K562 cells; Time 30 min): 107
penetration (mean fluorescent intensity) (K562 cells; Time 60 min): 135

R R L W Y L R R R F (RRLWYLRRRF) [SM4287]
penetration (mean fluorescent intensity) (K562 cells; Time 0 min): 4
penetration (mean fluorescent intensity) (K562 cells; Time 5 min): 29
penetration (mean fluorescent intensity) (K562 cells; Time 10 min): 34
penetration (mean fluorescent intensity) (K562 cells; Time 30 min): 50
penetration (mean fluorescent intensity) (K562 cells; Time 60 min): 60

RKLWYLRKRF [SM4293]
penetration (mean fluorescent intensity) (K562 cells; Time 0 min): 4.5
penetration (mean fluorescent intensity) (K562 cells; Time 5 min): 20
penetration (mean fluorescent intensity) (K562 cells; Time 10 min): 23
penetration (mean fluorescent intensity) (K562 cells; Time 30 min): 29
penetration (mean fluorescent intensity) (K562 cells; Time 60 min): 31
